Test results: patent US20090035287A1, “ATRIAL NATRIURETIC PEPTIDE (ANP) SPLICE VARIANTS AND METHODS OF USING SAME” (priority 2005, published 2009)
Bridge positions count the residues as written; N and C are the ends. Ends that are not written are not given here.

Tests used:
[1] = target: T1, membrane-bound guanylyl cyclase (Rattus norvegicus, UniProt P18910); assay: cGMP accumulation after activation of membrane-bound guanylyl cyclase in isolated rat lung membranes; type: biochemical
T1 construct: from tissue; host or cells: lung of Wistar rats (membrane preparation)
T1 sequence (P18910 29-1057): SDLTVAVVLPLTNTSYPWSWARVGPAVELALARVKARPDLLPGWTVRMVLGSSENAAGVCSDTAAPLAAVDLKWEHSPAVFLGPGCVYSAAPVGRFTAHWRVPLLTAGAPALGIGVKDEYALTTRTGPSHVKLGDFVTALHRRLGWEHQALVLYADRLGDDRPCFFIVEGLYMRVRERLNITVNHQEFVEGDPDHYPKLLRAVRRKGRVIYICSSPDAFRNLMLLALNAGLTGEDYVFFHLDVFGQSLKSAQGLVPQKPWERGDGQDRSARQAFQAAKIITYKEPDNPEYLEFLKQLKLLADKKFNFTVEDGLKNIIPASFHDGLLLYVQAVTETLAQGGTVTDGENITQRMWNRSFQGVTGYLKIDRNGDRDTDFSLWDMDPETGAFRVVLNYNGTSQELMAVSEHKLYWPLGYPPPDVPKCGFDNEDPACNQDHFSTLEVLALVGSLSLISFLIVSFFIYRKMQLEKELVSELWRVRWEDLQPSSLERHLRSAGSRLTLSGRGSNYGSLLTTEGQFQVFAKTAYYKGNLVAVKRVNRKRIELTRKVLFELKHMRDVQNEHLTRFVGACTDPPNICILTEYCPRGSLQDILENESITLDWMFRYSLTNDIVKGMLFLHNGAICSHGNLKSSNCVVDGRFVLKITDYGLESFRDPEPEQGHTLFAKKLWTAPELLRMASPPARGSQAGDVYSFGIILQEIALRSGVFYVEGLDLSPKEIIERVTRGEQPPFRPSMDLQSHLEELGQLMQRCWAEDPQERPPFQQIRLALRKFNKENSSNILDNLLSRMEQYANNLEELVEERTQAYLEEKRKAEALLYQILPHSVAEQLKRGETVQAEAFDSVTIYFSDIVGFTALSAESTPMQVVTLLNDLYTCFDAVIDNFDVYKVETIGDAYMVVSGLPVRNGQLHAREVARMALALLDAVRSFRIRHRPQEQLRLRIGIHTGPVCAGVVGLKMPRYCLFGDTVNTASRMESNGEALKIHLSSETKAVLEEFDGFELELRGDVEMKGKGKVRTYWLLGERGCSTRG
Experimental: The agonist-like activity of the ANP variant peptides was evaluated by in vitro assays designed to measure cGMP accumulation after activation of membrane-bound guanylyl cyclase. Guanylyl cyclases (GC) are a family of enzymes (EC 4.6.1.2) that catalyse the formation of the second messenger cyclic GMP (cGMP) from GTP. Activation of GCs leads to an increase in the concentration of the intracellular messenger molecule cGMP. GCs are subdivided into soluble GCs and GCs that are membrane-bound and linked to a receptor. Activation occurs through binding of nitric oxide (NO) and peptide hormones, respectively. Six different isoforms of membrane-bound GC (GC-A, GC-B, GC-C, GC-D, GC-E and GC-F) are known. The guanylyl cyclase A (GC-A) isoform acts as the receptor for the natriuretic peptides ANP and BNP.
As ANP is known to stimulate GC-A, the effect of known and variant ANP peptides on guanlyl cyclase was examined. The procedure employed was essentially as described in Glover V, et al., 1995 Life Sci. 57(22): 2073-2079; Nashida T, Imai A and Shimomura H (2000), Mol Cell Biochem. 208(1-2): 27-35. Briefly, membrane-bound guanylyl cyclase isolated from the lung of Wistar rats was used. […] The reaction was terminated by addition of 1 N HCl and the supernatant evaluated for cGMP level by EIA. Enzyme activity was determined spectrophotometrically by measuring the formation of cGMP. […]

[2] = system: spontaneously hypertensive rats (SHR); assay: Renal and cardiovascular effects in anesthetized spontaneously hypertensive rats, 30-min intravenous infusion; type: in vivo, rat; conditions: for heart rate change: i.v. 30-min infusion
Experimental: The assay was performed with anesthetized spontaneously hypertensive rats (SHR) following intravenous administration of the various ANP-proteins by a 30-min infusion.
Male Wistar-Okamoto derived spontaneously hypertensive rats (SHR) provided by National Laboratory Animal Center were used. Space allocation for 6 rats was 45×23×15 cm. All animals were maintained in a controlled temperature (23° C.-24° C.) and humidity (60%-70%) environment with 12 hours light dark cycles for at least one week in MDS Pharma Services—Taiwan Laboratory prior to use. Free access to standard lab chow (Laboratory Rodent Diet MF-18; Oriental Yeast Co., Ltd. Japan) and RO water was granted. All aspects of this work including housing, experimentation and disposal of animals were performed in general accordance with the Guide for the Care and Use of Laboratory Animals (National Academy Press, Washington, D.C., 1996).
Groups of 5 male rats (SHR) weighing 250-300 g were employed. Rats were anaesthetized with Inactin (120 mg/kg i.p.). The left carotid artery, jugular vein, and bladder were cannulated with polyethylene (PE50) catheters. The arterial cannula was connected via a Statham (P 23×L) pressure transducer to a NEC/San-Ei Type 366 polygraph for direct mean arterial blood pressure measurements. Heart rate was derived from pulse pressure signals and monitored on a Data Acquisition and Analytic System (Power Lab 8/SP, AD Instruments, Australia). The body temperature was kept at 37° C. using a thermostat-controlled hot plate. The animals were primed with 1 ml 2.5% dextrose+0.45% NaCl intravenously, followed by continuous infusion of the same solution at a rate of 2.4 ml/hr with an infusion pump throughout the experiments. After an equilibration period of 30 min, a 30-min control urine sample was collected. Test compounds were dissolved in 2.5% dextrose+0.45% NaCl and delivered by infusion for 30 min at 2.4 ml/hr. […] The infusion rate was 2.4 ml/hr. Urine samples were collected through the catheter during infusion of peptides and in the two 30-min post-peptide periods. Urinary Na^+ concentration was measured with an atomic absorption spectrometer. All values represent mean±SEM and Dunnett's test was applied for comparison between corresponding time points for each drug-treated and control groups. Differences were considered significant at P<0.05.

[3] = target: T2, membrane-bound guanylyl cyclase isolated from the lung of Wistar rats (rat, UniProt P18910 29-1057); assay: cell-based or functional assay
T2 sequence (looked up): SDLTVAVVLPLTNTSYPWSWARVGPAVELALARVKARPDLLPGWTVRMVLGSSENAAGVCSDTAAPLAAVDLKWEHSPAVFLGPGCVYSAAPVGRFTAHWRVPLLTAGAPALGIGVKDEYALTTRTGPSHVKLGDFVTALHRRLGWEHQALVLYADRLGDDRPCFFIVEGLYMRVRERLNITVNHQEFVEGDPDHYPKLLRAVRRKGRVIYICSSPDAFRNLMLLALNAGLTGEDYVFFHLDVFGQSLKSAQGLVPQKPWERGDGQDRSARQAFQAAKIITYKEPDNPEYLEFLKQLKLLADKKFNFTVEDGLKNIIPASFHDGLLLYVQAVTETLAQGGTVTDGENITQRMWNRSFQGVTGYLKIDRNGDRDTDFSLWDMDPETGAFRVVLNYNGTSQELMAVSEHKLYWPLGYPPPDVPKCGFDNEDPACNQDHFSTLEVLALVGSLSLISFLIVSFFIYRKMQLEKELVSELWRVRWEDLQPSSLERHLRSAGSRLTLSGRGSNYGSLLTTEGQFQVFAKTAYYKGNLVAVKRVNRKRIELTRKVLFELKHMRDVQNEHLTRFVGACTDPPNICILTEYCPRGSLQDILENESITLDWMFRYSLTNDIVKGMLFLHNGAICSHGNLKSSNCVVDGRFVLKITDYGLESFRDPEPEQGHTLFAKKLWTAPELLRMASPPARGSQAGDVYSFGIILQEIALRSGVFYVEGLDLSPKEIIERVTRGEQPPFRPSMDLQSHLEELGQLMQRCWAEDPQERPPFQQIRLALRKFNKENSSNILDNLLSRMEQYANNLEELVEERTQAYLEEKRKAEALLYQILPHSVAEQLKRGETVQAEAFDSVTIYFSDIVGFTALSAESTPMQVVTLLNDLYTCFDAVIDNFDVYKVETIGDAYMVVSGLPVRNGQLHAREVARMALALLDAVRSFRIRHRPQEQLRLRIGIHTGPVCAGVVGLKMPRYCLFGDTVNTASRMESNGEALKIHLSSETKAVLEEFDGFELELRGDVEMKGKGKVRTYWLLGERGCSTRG

[4] = i.v. infusion 1 μg/kg/min × 30 min
[5] = i.v. infusion 3 μg/kg/min × 30 min
[6] = i.v. infusion 1 and 3 μg/kg/min × 30 min

**Q.** How did the “cGMP accumulation, agonist activity in words” value [1] turn out when “SLRRSSCFGGRMDRIGAQSGLGCNSFRELNWLRPLMEQPLLSLME (disulfide 7-23) [ANP-45]” was run?
**A.** level comparable to the known control molecules

**Q.** And the heart rate change [2]?
**A.** decrease in heart rate

**Q.** And the “absolute change of mean arterial pressure (MAP-infusion minus MAP-baseline)” value [2, 4]?
**A.** −28 mmHg

**Q.** What about the “absolute change of mean arterial pressure (MAP-infusion minus MAP-baseline)” value [2, 5] of the same molecule?
**A.** −37 mmHg

**Q.** And the “urine volume (diuresis)” value [2, 5]?
**A.** pronounced diuresis, similar in magnitude to that of Carperitide

**Q.** And the “urinary sodium excretion (natriuresis)” value [2, 6]?
**A.** dose-dependent increase in urinary sodium excretion

**Q.** What about the “urine volume (diuresis), dose dependence” value [2, 6] of the same molecule?
**A.** dose-dependent increase in urine volume

**Q.** With “TAPRSLRRSSCFGGRMDRIGAQSGLGCNSFRELNWLRPLMEQPLLSLME (disulfide 11-27) [ANP-49]” as the molecule, how does the “cGMP accumulation, agonist activity in words” value [1] read?
**A.** level comparable to the known control molecules

**Q.** And the heart rate change [2]?
**A.** decrease in heart rate

**Q.** And the “absolute change of mean arterial pressure (MAP-infusion minus MAP-baseline)” value [2, 4]?
**A.** −1 mmHg

**Q.** What about the “urine volume (diuresis)” value [2, 4] of the same molecule?
**A.** such effect was not observed

**Q.** What about the “absolute change of mean arterial pressure (MAP-infusion minus MAP-baseline)” value [2, 5] of the same molecule?
**A.** −23 mmHg

**Q.** What about the “urine volume (diuresis)” value [2, 5] of the same molecule?
**A.** even higher increase in urine volume relative to Carperitide

**Q.** With `CC[C@H](C)[C@@H]1NC(=O)[C@H](CCCNC(=N)N)NC(=O)[C@H](CC(=O)O)NC(=O)[C@H](CCSC)NC(=O)[C@H](CCCNC(=N)N)NC(=O)CNC(=O)CNC(=O)[C@H](Cc2ccccc2)NC(=O)[C@@H](NC(=O)[C@H](CO)NC(=O)[C@H](CO)NC(=O)[C@H](CCCNC(=N)N)NC(=O)[C@H](CCCNC(=N)N)NC(=O)[C@H](CC(C)C)NC(=O)[C@@H](N)CO)CSSC[C@@H](C(=O)N[C@@H](CC(N)=O)C(=O)N[C@@H](CO)C(=O)N[C@@H](Cc2ccccc2)C(=O)N[C@@H](CCCNC(=N)N)C(=O)N[C@@H](Cc2ccc(O)cc2)C(=O)O)NC(=O)CNC(=O)[C@H](CC(C)C)NC(=O)CNC(=O)[C@H](CO)NC(=O)[C@H](CCC(N)=O)NC(=O)[C@H](C)NC(=O)CNC1=O` [ANP-28, reference compound] as the molecule, how does the heart rate change ([2]; listed as ANP28) read?
**A.** decrease in heart rate

**Q.** With `CC[C@H](C)[C@@H]1NC(=O)[C@H](CCCNC(=N)N)NC(=O)[C@H](CC(=O)O)NC(=O)[C@H](CCSC)NC(=O)[C@H](CCCNC(=N)N)NC(=O)CNC(=O)CNC(=O)[C@H](Cc2ccccc2)NC(=O)[C@@H](NC(=O)[C@H](CO)NC(=O)[C@H](CO)NC(=O)[C@H](CCCNC(=N)N)NC(=O)[C@H](CCCNC(=N)N)NC(=O)[C@H](CC(C)C)NC(=O)[C@@H](N)CO)CSSC[C@@H](C(=O)N[C@@H](CC(N)=O)C(=O)N[C@@H](CO)C(=O)N[C@@H](Cc2ccccc2)C(=O)N[C@@H](CCCNC(=N)N)C(=O)N[C@@H](Cc2ccc(O)cc2)C(=O)O)NC(=O)CNC(=O)[C@H](CC(C)C)NC(=O)CNC(=O)[C@H](CO)NC(=O)[C@H](CCC(N)=O)NC(=O)[C@H](C)NC(=O)CNC1=O` [Carperitide, reference compound] as the molecule, how does the heart rate change [2] read?
**A.** less pronounced

B1: ANP-49 (variant) (peptide)
peptide: TAPRSLRRSSCFGGRMDRIGAQSGLGCNSFRELNWLRPLMEQPLLSLME
modifications: disulfide 11-27
**Q.** B1 was tested. Which “cGMP accumulation after activation of membrane-bound guanylyl cyclase (EIA), EC50” value [3] did it give?
**A.** 138 nM

B2: ANP-45 (variant) (peptide)
peptide: SLRRSSCFGGRMDRIGAQSGLGCNSFRELNWLRPLMEQPLLSLME
modifications: disulfide 7-23
**Q.** For B2, which “cGMP accumulation after activation of membrane-bound guanylyl cyclase (EIA), EC50” value [3] is on record?
**A.** 86.3 nM
